For the first experiment, the target named is T1, TRPC4 (Homo sapiens, UniProt Q9UBN4).
T1 construct: expressed in transfected cells; host or cells: HEK-TREx (HekTrex-293), cell line ICLN-1694, tetracycline-induced
T1 sequence (Q9UBN4 1-982 isoform Q9UBN4-5): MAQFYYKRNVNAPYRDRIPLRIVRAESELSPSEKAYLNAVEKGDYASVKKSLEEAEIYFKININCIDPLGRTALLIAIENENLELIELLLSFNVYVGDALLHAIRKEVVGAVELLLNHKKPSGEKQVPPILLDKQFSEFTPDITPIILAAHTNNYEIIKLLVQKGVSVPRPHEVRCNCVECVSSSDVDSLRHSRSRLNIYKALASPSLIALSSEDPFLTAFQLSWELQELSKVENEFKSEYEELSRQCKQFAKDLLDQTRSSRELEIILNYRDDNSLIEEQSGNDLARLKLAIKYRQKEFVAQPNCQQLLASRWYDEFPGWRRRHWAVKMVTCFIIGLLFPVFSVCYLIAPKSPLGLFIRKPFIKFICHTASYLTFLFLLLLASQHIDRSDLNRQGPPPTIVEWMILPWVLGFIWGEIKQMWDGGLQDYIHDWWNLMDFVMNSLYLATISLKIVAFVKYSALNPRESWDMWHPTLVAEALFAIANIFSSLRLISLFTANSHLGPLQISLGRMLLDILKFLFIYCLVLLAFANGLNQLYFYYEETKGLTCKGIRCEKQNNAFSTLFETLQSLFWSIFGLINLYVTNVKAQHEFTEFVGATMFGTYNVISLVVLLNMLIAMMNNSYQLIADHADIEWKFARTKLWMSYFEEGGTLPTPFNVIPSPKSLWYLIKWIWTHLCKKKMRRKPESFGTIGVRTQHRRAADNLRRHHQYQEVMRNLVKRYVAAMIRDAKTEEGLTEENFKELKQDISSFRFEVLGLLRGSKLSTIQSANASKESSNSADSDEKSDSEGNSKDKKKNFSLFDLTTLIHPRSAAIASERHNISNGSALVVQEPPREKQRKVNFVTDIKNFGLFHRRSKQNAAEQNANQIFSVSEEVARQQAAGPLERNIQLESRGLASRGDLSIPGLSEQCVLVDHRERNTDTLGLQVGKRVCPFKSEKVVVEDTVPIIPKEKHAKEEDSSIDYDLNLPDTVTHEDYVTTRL
In words: TRPC4 FLIPR Assay (HEK-TREx hTRPC4, Englerin A stimulation). Type of experiment: cell-based. Particulars: Table 9; HEK-TREx hTRPC4; read-out: hTRPC4-FLIPR IC50. The protocol:
FLIPR Assay Buffer (Earls Balanced Salt Solution (EBSS)) was prepared as follows:
10-point dose response curves were generated using the Echo-550 acoustic dispenser. Compound source plates were made by serially diluting compound stocks to create 10 mM, 1 mM, and 0.1 mM solutions in DMSO into Echo certified LDV plates. The Echo then serially spotted 100% DMSO stock solutions into source dose response plates to generate a 4-fold dilution scheme. 100% DMSO was added to the spotted dose response plates to bring the final volume to 5 μl. […] of the dose response stock plate was then spotted into pre-incubation and stimulation assay plates. […] of pre-incubation buffer and 100 μl of stimulation buffer was then added to the plates resulting in a final assay test concentration range of 30 μM to 0.0001 μM with a final DMSO concentration of 0.3%.
Experimental Methods: Cells expressing TRPC4 were plated onto 384 well, black pdl-coated microplates and maintained in TRPC4 growth media the day prior to use for experiments. TRPC4 expression was induced by the application of 1 μg/ml tetracycline at the time of plating. […] Cells were incubated at room temperature, protected from light, for 60-90 minutes. After the incubation period, the dye was removed and replaced with 10 μl of EBSS. Cell, pre-incubation and stimulation plates were loaded onto the FLIPR-II and the assay was initiated. The FLIPR measured a 10 second baseline and then added 10 μl of 2× compounds (or controls). Changes in fluorescence were monitored for an additional 5 minutes. After a 5 minute pre-incubation, 20 μl of 2× Englerin A (with 1× compound or controls) was added to the cell plate. The final Engerlin A stimulation concentration in the assay is 100 nM. After the Englerin A addition, changes in fluorescence were monitored for an additional 5 minutes.
Test Agent Effect: Test agent modulation of TRPC4 calcium response was determined as follows. After the Englerin A, fluorescence was monitored for a 5 minute period. The maximum relative fluorescence response (minus the control response of […] of the control inhibitor) was captured and exported from the FLIPR. Test agent effect was calculated as % inhibition using the following formula: % inhibition=((RFU TEST AGENT−Plate Average RFU REF INHIB)/(Plate Average RFU CONTROL−Plate Average RFU REF INHIB))×100
`C[C@@H](c1ccccc1C(F)(F)F)N1CCN(c2cn[nH]c(=O)c2Cl)CC1=O` [drawing 1044]: the IC50 is 0.01 to 1000 nM.

Regarding `C[C@@H](c1ccc(F)cc1C(F)(F)F)N1CCN(c2cn[nH]c(=O)c2Cl)CC1=O` [drawing 1049], the IC50 was 0.01 to 1000 nM.

In the case of `C[C@H](c1ccc(F)cc1C(F)(F)F)N1C[C@@H](C)N(c2cn[nH]c(=O)c2Cl)CC1=O` [drawing 1048], the IC50 lay within 0.01 to 1000 nM.

Still in this experiment, the particulars now being: Table 10; HEK-TREx hTRPC4; read-out: TRPC4-FLIPR ICSO.
Take `CCS(=O)(=O)c1nc2c(n1Cc1ccccc1C(F)(F)F)CCN(c1cn[nH]c(=O)c1Cl)C2` [drawing 1079]: the IC50 was 0.01 to 1000 nM.

As to `CCN(c1ncc2c(n1)CN(c1cn[nH]c(=O)c1Cl)C2)c1ccccc1Cl` [drawing 1148], the IC50 was 0.01 to 1000 nM.

Consider `O=c1[nH]ncc(N2CCc3c(Cc4ccc(F)cc4C(F)(F)F)n[nH]c3C2)c1Cl` [drawing 1153], for which the IC50 lay within 0.01 to 1000 nM.

Turning to `CS(=O)(=O)c1nc2c(n1Cc1ccccc1C(F)(F)F)CCN(c1cn[nH]c(=O)c1Cl)C2` [drawing 1142], the IC50 fell in the range of 0.01 to 1000 nM.

Take `CC(c1ccc(F)cc1C(F)F)n1nc(C(N)=O)c2c1CCN(c1cn[nH]c(=O)c1Cl)C2` (centres unmarked) [drawing 1114]: the IC50 is 0.01 to 1000 nM.

Turning to `CNC(=O)c1nn([C@H](C)c2ccccc2C(F)F)c2c1CN(c1cn[nH]c(=O)c1Cl)CC2` [drawing 1113], the IC50 was in the range of 0.01 to 1000 nM.

Consider `COCc1ccccc1Cn1cnc2c1CCN(c1cn[nH]c(=O)c1Cl)C2` [drawing 1053], for which the IC50 lay within 0.01 to 1000 nM.

Regarding `C[C@@H](c1ccccc1Cl)n1nnc2c1CCN(c1cn[nH]c(=O)c1Cl)C2` [drawing 1140], the IC50 was 0.01 to 1000 nM.

In the case of `C[C@H](c1ccccc1C(F)(F)F)n1nnc2c1CCN(c1cn[nH]c(=O)c1Cl)[C@H]2C` [drawing 1078], the IC50 fell in the range of 0.01 to 1000 nM.

Consider `O=c1[nH]ncc(N2CCc3c(c(=O)[nH]n3Cc3ccccc3C(F)(F)F)C2)c1Cl` [drawing 1081], for which the IC50 was 0.01 to 1000 nM.

Take `CCc1ncccc1N(C)c1ncc2c(n1)CN(c1cn[nH]c(=O)c1Cl)C2` [drawing 1154]: the IC50 fell in the range of 0.01 to 1000 nM.

In the case of `C[C@@H](c1cccnc1CC(F)F)n1nnc2c1CCN(c1cn[nH]c(=O)c1Cl)C2` [drawing 1125], the IC50 lay within 0.01 to 1000 nM.

`[2H]c1nc2c(n1Cc1ccccc1C(F)(F)F)CCN(c1cn[nH]c(=O)c1Cl)C2`: the IC50 fell in the range of 0.01 to 1000 nM.

Take `CNC(=O)c1nc2c(n1Cc1ccccc1C(F)(F)F)CCN(c1cn[nH]c(=O)c1Cl)C2` [drawing 1134]: the IC50 lay in the range of 0.01 to 1000 nM.

Regarding `C[C@@H](c1ccccc1C(F)F)n1nnc2c1CCN(c1cn[nH]c(=O)c1Cl)C2` [drawing 1106], the IC50 was in the range of 0.01 to 1000 nM.

Consider `C[C@H](c1ccc(F)cc1C(F)(F)F)n1nnc2c1CCN(c1cn[nH]c(=O)c1Cl)[C@H]2C` [drawing 1092], for which the IC50 lay in the range of 0.01 to 1000 nM.

With `C[C@@H](c1ccc(F)cc1C(F)F)n1nnc2c1CCN(c1cn[nH]c(=O)c1Cl)C2` [drawing 1107], the IC50 lay in the range of 0.01 to 1000 nM.

Consider `C[C@H](c1ccccc1C(F)(F)F)n1nc(C(N)=O)c2c1CCN(c1cn[nH]c(=O)c1Cl)C2` [drawing 1123], for which the IC50 fell in the range of 0.01 to 1000 nM.

For `CNC(=O)c1nn(Cc2ccc(F)cc2C(F)F)c2c1CN(c1cn[nH]c(=O)c1Cl)CC2` [drawing 1117], the IC50 lay in the range of 0.01 to 1000 nM.

Regarding `C[C@H](c1ccccc1Cl)n1nnc2c1CCN(c1cn[nH]c(=O)c1Cl)C2` [drawing 1133], the IC50 was 0.01 to 1000 nM.

Take `C[C@@H]1Cc2c(c(C(N)=O)nn2Cc2ccccc2C(F)(F)F)CN1c1cn[nH]c(=O)c1Cl` [drawing 1118]: the IC50 lay within 0.01 to 1000 nM.

Regarding `C[C@H](c1ccccc1C(F)F)n1nnc2c1CCN(c1cn[nH]c(=O)c1Cl)C2` [drawing 1100], the IC50 lay within 0.01 to 1000 nM.

Consider `COCc1ncccc1Cn1cnc2c1CCN(c1cn[nH]c(=O)c1Cl)C2` [drawing 1065], for which the IC50 lay in the range of 1000 to 5000 nM.

Regarding `O=c1[nH]ncc(N2CCc3c(ncn3Cc3ccccc3Cl)C2)c1Cl` [drawing 1139], the IC50 lay within 0.01 to 1000 nM.

Turning to `O=c1[nH]ncc(N2CCc3c(nnn3Cc3ccc(F)cc3CC(F)(F)F)C2)c1Cl` [drawing 1131], the IC50 is 0.01 to 1000 nM.

As for `CN(c1ncc2c(n1)CN(c1cn[nH]c(=O)c1Cl)C2)c1ccc(F)cc1Cl` [drawing 1144], the IC50 was 0.01 to 1000 nM.

Take `O=c1[nH]ncc(N2CCc3c(ncn3Cc3ccc(F)cc3Cl)C2)c1Cl` [drawing 1136]: the IC50 was in the range of 0.01 to 1000 nM.

For the compound `C[C@@H]1Cc2c(nnn2[C@@H](C)c2ccc(F)cc2C(F)(F)F)CN1c1cn[nH]c(=O)c1Cl` [drawing 1085], the IC50 lay within 0.01 to 1000 nM.

Take `C[C@H](c1ccc(F)cc1C(F)F)n1nc(C(N)=O)c2c1CCN(c1cn[nH]c(=O)c1Cl)C2`: the IC50 was in the range of 0.01 to 1000 nM.

Regarding `COC[C@H](c1ccccc1C(F)(F)F)n1cnc2c1CCN(c1cn[nH]c(=O)c1Cl)C2` [drawing 1120], the IC50 lay in the range of 0.01 to 1000 nM.

As for `NC(=O)c1nc2c(n1Cc1ccccc1C(F)(F)F)CCN(c1cn[nH]c(=O)c1Cl)C2` [drawing 1135], the IC50 lay within 0.01 to 1000 nM.

Regarding `C[C@@H]1Cc2c(nnn2[C@@H](C)c2ccccc2C(F)(F)F)CN1c1cn[nH]c(=O)c1Cl` [drawing 1071], the IC50 was 0.01 to 1000 nM.

Values taken from patent US20260184708A1, “PYRIDAZINONES AND METHODS OF USE THEREOF” (GFB (ABC), LLC, priority 2017, published 2026).
